Data on 16 compounds can be found in patent US20140243334A1, “SUBSTITUTED HYDOXAMIC ACIDS AND USES THEREOF” (Millennium Pharmaceuticals, Inc., priority 2010, published 2014).

The test concerns the target T1, purified human HDAC6 (Homo sapiens, UniProt Q9UBN7).
T1 construct: purchased BPS Bioscience 5006
T1 sequence (Q9UBN7 1-1215): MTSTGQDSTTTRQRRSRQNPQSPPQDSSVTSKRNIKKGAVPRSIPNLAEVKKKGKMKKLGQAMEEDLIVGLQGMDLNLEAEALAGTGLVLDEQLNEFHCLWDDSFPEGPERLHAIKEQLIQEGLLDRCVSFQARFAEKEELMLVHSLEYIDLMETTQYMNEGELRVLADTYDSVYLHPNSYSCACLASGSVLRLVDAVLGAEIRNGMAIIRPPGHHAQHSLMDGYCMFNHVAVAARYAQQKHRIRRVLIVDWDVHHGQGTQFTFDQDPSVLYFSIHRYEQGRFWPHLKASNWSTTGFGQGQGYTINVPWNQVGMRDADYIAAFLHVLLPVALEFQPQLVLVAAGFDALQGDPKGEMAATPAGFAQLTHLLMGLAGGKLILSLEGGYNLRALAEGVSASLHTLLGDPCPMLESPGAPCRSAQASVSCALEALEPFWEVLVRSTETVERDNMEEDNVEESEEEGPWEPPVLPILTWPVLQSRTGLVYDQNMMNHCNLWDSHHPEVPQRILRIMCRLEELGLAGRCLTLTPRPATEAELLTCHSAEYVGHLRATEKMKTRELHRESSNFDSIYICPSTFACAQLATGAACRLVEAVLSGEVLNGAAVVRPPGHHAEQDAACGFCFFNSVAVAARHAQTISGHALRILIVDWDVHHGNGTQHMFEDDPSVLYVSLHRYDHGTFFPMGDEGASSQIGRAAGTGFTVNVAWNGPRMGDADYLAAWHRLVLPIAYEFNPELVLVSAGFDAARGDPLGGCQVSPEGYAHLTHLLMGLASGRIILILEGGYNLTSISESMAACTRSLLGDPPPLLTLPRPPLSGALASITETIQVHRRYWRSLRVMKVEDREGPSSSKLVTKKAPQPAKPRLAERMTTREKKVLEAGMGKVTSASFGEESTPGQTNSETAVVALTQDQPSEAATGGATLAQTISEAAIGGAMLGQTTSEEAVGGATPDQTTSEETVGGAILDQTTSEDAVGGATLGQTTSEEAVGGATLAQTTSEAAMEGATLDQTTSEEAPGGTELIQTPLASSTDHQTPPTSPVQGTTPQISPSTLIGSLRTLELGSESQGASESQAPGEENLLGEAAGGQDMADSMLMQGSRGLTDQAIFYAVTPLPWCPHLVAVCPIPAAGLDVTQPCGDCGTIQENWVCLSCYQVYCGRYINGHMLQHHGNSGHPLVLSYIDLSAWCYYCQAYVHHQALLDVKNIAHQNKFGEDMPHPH
Put plainly: HDAC6 Enzyme Assay. Particulars: HDAC6 inhibition at a compound concentration of 0.412 μM; read-out: Percent Inhibition at 0.412 μM. Type of test: biochemical.

As for `CC(C)Oc1ccc(-c2ccc3c(c2)CC(C(=O)NO)CC3)cc1` (stereo not shown) [Compound I-89, N-hydroxy-7-(4-isopropoxyphenyl)-1,2,3,4-tetrahydronaphthalene-2-carboxamide], the inhibition at 0.412 µM was 66%.
In the case of `O=C(NO)C1CCc2ccc(-c3ccc4c(c3)CCO4)cc2C1` (stereo not shown) [Compound I-90, 7-(2,3-dihydro-1-benzofuran-5-yl)-N-hydroxy-1,2,3,4-tetrahydronaphthalene-2-carboxamide] it was 85%; in that of `O=C(NO)C1CCc2ccc(-c3ccc4nonc4c3)cc2C1` (stereo not shown) [Compound I-91, 7-(2,1,3-benzoxadiazol-5-yl)-N-hydroxy-1,2,3,4-tetrahydronaphthalene-2-carboxamide], 77%.
Take `CN(C)c1ccc(-c2ccc3c(c2)CC(C(=O)NO)CC3)cc1` (stereo not shown) [Compound I-92, 7-[4-(dimethylamino)phenyl]-N-hydroxy-1,2,3,4-tetrahydronaphthalene-2-carboxamide]: the inhibition at 0.412 µM is 67%.
The figure for `CN(C)S(=O)(=O)c1cccc(-c2ccc3c(c2)CC(C(=O)NO)CC3)c1` (stereo not shown) [Compound I-93, 7-{3-[(dimethylamino)sulfonyl]phenyl}-N-hydroxy-1,2,3,4-tetrahydronaphthalene-2-carboxamide] is 79%; for `CCCc1ccc(-c2ccc3c(c2)CC(C(=O)NO)CC3)cc1` (stereo not shown) [Compound I-94, N-hydroxy-7-(4-propylphenyl)-1,2,3,4-tetrahydronaphthalene-2-carboxamide] it is 62%; for `COc1ccc(-c2ccc3c(c2)CC(C(=O)NO)CC3)c(C)c1` (stereo not shown) [Compound I-95, N-hydroxy-7-(4-methoxy-2-methylphenyl)-1,2,3,4-tetrahydronaphthalene-2-carboxamide] it is 78%.
For `O=C(NO)C1CCc2ccc(-c3csc4ccccc34)cc2C1` (stereo not shown) [Compound I-96, 7-(1-benzothien-3-yl)-N-hydroxy-1,2,3,4-tetrahydronaphthalene-2-carboxamide], the inhibition at 0.412 µM came out at 79%.
As for `O=C(NO)C1CCc2ccc(-c3ccc(N4CCCC4)nc3)cc2C1` (stereo not shown) [Compound I-97, N-hydroxy-7-(6-pyrrolidin-1-ylpyridin-3-yl)-1,2,3,4-tetrahydronaphthalene-2-carboxamide], the inhibition at 0.412 µM was found to be 81%.
The figure for `Cc1ccc(-c2ccc3c(c2)CC(C(=O)NO)CC3)c2ccccc12` (stereo not shown) [Compound I-98, N-hydroxy-4-methyl-5′,6′,7′,8′-tetrahydro-1,2′-binaphthalene-7′-carboxamide] is 78%; for `O=C(NO)C1CCc2ccc(-c3ccc(N4CCOCC4)nc3)cc2C1` (stereo not shown) [Compound I-99, N-hydroxy-7-(6-morpholin-4-ylpyridin-3-yl)-1,2,3,4-tetrahydronaphthalene-2-carboxamide] it is 82%.
In the case of `CNC(=O)c1cc(F)cc(-c2ccc3c(c2)CC(C(=O)NO)CC3)c1` (stereo not shown) [Compound I-100, 7-{3-fluoro-5-[(methylamino)carbonyl]phenyl}-N-hydroxy-1,2,3,4-tetrahydronaphthalene-2-carboxamide] it was 84%; in that of `COc1ccc(-c2ccc3c(c2)CC(C(=O)NO)CC3)cc1F` (stereo not shown) [Compound I-101, 7-(3-fluoro-4-methoxyphenyl)-N-hydroxy-1,2,3,4-tetrahydronaphthalene-2-carboxamide], 82%; in that of `Cc1cc(F)ccc1-c1ccc2c(c1)CC(C(=O)NO)CC2` (stereo not shown) [Compound I-102, 7-(4-fluoro-2-methylphenyl)-N-hydroxy-1,2,3,4-tetrahydronaphthalene-2-carboxamide], 76%.
The figure for `O=C(NO)C1CCc2ccc(-c3ccoc3)cc2C1` (stereo not shown) [Compound I-103, 7-(3-furyl)-N-hydroxy-1,2,3,4-tetrahydronaphthalene-2-carboxamide] is 72%.
With `O=C(NO)C1CCc2ccc(-c3ccc([N+](=O)[O-])cc3)cc2C1` (stereo not shown) [Compound I-104, N-hydroxy-7-(4-nitrophenyl)-1,2,3,4-tetrahydronaphthalene-2-carboxamide], the inhibition at 0.412 µM was 78%.
